The supplement of paper PMC10307832

Tests used:
Assay in all cases: relative viability (nuclei count vs DMSO), 5 days (fraction); higher = more cells survive
[1] = compound: CC(=O)Nc1cccc(-n2c(=O)n(C3CC3)c(=O)c3c(Nc4ccc(I)cc4F)n(C)c(=O)c(C)c32)c1 [Trametinib] + COc1cccc2cc(-c3nc([C@H]4CC[C@H](C(=O)O)CC4)n4ncnc(N)c34)[nH]c12 [OSI-027] (partner 0.5 µM)
Summary of the method: (§1)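 Relative viability divides the nuclei count in treated wells by that in vehicle wells. Lung cancer cell lines were seeded in 1536-well plates, dosed by pin tool the next day, and fixed and stained after 5 days in one step with final 0.05% Triton X-100, 1% formaldehyde and 1 ug/ml Hoechst. Dosing was a single drug or a fixed anchor-drug dose plus five library-drug doses (not always all listed) in √10 steps, and values are medians of duplicate plates imaged at 4×.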

[2] = compound: CC(=O)Nc1cccc(-n2c(=O)n(C3CC3)c(=O)c3c(Nc4ccc(I)cc4F)n(C)c(=O)c(C)c32)c1 [Trametinib] + C[C@@H](Oc1cc(-c2cnn(C3CCNCC3)c2)cnc1N)c1c(Cl)ccc(F)c1Cl [Crizotinib] (partner 1 µM)
Summary of the method: as §1

[3] = compound: CN1C=C(C2=CC=CC=C21)/C=C\3/C4=C(C=CC=N4)NC3=O + Cc1nc(Nc2ncc(C(=O)Nc3c(C)cccc3Cl)s2)cc(N2CCN(CCO)CC2)n1 [Dasatinib] (partner 0.075 µM)
Summary of the method: as §1

[4] = compound: CN1C=C(C2=CC=CC=C21)/C=C\3/C4=C(C=CC=N4)NC3=O + N=C(N)NC(=N)NCCc1ccccc1 [Phenformin] (partner 250 µM)
Summary of the method: as §1

| Cell Line | relative viability ([1]; first compound 0.0025 µM) | relative viability ([1]; first compound 0.007906 µM) | relative viability ([1]; first compound 0.025 µM) | relative viability ([1]; first compound 0.07906 µM) | relative viability ([1]; first compound 0.25 µM) | relative viability ([2]; first compound 0.0025 µM) | relative viability ([2]; first compound 0.007906 µM) | relative viability ([2]; first compound 0.025 µM) | relative viability ([2]; first compound 0.07906 µM) | relative viability ([2]; first compound 0.25 µM) | relative viability ([3]; first compound 0.02 µM) | relative viability ([3]; first compound 0.06325 µM) | relative viability ([3]; first compound 0.2 µM) | relative viability ([3]; first compound 0.6325 µM) | relative viability ([3]; first compound 2 µM) | relative viability ([4]; first compound 0.02 µM) | relative viability ([4]; first compound 0.06325 µM) | relative viability ([4]; first compound 0.2 µM) | relative viability ([4]; first compound 0.6325 µM) | relative viability ([4]; first compound 2 µM) |
| --- | --- | --- | --- | --- | --- | --- | --- | --- | --- | --- | --- | --- | --- | --- | --- | --- | --- | --- | --- | --- |
| HOP-62 | 0.879 | 0.873 | 0.493 | 0.219 | 0.188 | 0.925 | 0.932 | 0.581 | 0.502 | 0.209 | 0.683 | 0.709 | 0.592 | 0.599 | 0.648 | 0.645 | 0.678 | 0.72 | 0.664 | 0.752 |
| HCC-15 | 0.436 | 0.338 | 0.201 | 0.161 | 0.167 | 0.658 | 0.53 | 0.415 | 0.259 | 0.187 | 0.53 | 0.577 | 0.565 | 0.544 | 0.496 | 0.422 | 0.462 | 0.486 | 0.448 | 0.463 |
| HARA | 0.575 | 0.359 | 0.23 | 0.328 | 0.0752 | 0.9 | 0.907 | 0.807 | 0.638 | 0.336 | 0.313 | 0.265 |  | 0.254 | 0.244 | 0.407 | 0.412 |  | 0.34 | 0.431 |
| SK-MES-1 | 0.647 | 0.582 | 0.46 | 0.447 | 0.266 | 0.997 | 0.991 | 0.792 | 0.543 | 0.334 | 0.271 | 0.322 | 0.279 | 0.305 | 0.353 | 0.653 | 0.634 | 0.715 | 0.672 | 0.624 |
| NCI-H1355 | 0.344 | 0.327 | 0.241 | 0.263 | 0.242 | 1.01 | 0.869 | 0.645 | 0.655 | 0.47 | 0.671 | 0.586 | 0.571 | 0.399 | 0.502 | 0.439 | 0.388 | 0.398 | 0.358 | 0.434 |
| NCI-H727 | 0.426 | 0.39 | 0.266 | 0.274 | 0.317 | 0.381 | 0.278 | 0.279 | 0.195 | 0.206 | 0.332 | 0.372 | 0.365 | 0.332 | 1.12 | 0.414 | 0.448 | 0.442 | 0.586 | 0.528 |
| NCI-H520 | 0.225 | 0.272 | 0.246 | 0.248 | 0.261 | 0.752 | 0.681 | 0.815 | 0.733 | 0.557 | 0.206 | 0.213 | 0.199 | 0.182 | 0.221 | 0.453 | 0.503 | 0.54 | 0.669 | 0.533 |
| NCI-H838 | 0.301 | 0.298 | 0.227 | 0.281 | 0.236 | 0.786 | 0.689 |  | 0.572 | 0.411 | 0.146 | 0.277 | 0.242 | 0.27 | 0.261 | 0.5 | 0.533 | 0.519 | 0.569 | 0.535 |
| LK-2 | 0.197 | 0.205 | 0.164 | 0.18 | 0.186 | 0.283 | 0.217 | 0.226 | 0.299 | 0.241 |  |  |  | 0.266 | 0.256 |  |  |  | 0.56 | 0.546 |
| HCC-827 | 0.702 | 0.671 | 0.529 | 0.392 | 0.429 | 0.931 | 0.946 | 0.889 | 0.859 | 0.532 | 0.296 | 0.354 |  | 0.28 | 0.427 | 0.405 | 0.413 |  | 0.465 | 0.388 |
| SW 1573 | 0.474 | 0.486 | 0.344 | 0.338 | 0.285 | 0.781 | 0.603 | 0.601 | 0.518 | 0.462 | 0.348 | 0.537 | 0.488 | 0.633 | 0.516 | 0.394 | 0.344 | 0.436 | 0.352 | 0.441 |
| NCI-H2023 | 0.344 | 0.297 | 0.229 | 0.311 | 0.188 | 0.597 | 0.543 | 0.475 | 0.442 | 0.247 | 0.638 | 0.566 | 0.349 | 0.458 | 0.381 | 0.395 | 0.376 | 0.361 | 0.409 | 0.418 |
| EPLC-272H | 0.319 | 0.285 | 0.192 | 0.129 | 0.183 | 0.825 | 0.672 | 0.538 | 0.599 | 0.377 | 0.344 | 0.41 | 0.237 |  | 0.355 | 0.287 | 0.244 | 0.242 |  | 0.3 |
| SK-LU-1 | 0.319 | 0.313 | 0.217 | 0.198 | 0.188 | 0.976 | 0.87 | 0.775 | 0.619 | 0.371 | 0.118 | 0.129 | 0.175 | 0.191 | 0.154 | 0.409 | 0.41 | 0.444 | 0.524 | 0.646 |
| NCI-H358 | 0.393 | 0.341 | 0.19 | 0.174 | 0.14 | 0.526 | 0.349 | 0.276 | 0.243 | 0.194 | 0.145 | 0.166 | 0.174 | 0.186 | 0.198 | 0.301 | 0.316 | 0.311 | 0.4 | 0.4 |
| ABC-1 | 0.403 | 0.439 | 0.28 | 0.266 | 0.225 | 0.99 | 1.03 | 0.972 | 1.07 | 0.634 | 0.484 | 0.424 | 0.53 | 0.562 | 0.56 | 0.226 | 0.242 | 0.23 | 0.244 | 0.21 |
| NCI-H2085 | 0.469 | 0.352 | 0.281 | 0.329 | 0.298 | 0.793 | 0.69 | 0.698 | 0.688 | 0.63 | 0.248 | 0.273 | 0.195 | 0.227 | 0.204 | 0.74 | 0.656 | 0.647 | 0.778 | 0.72 |
